Each structure is given as a SMILES string.

For data set [1], the system named is influenza virus A/Taiwan/1/86 (H1N1). Description: organism not typed. The following applies: MDCK, 72 h, CPE in MDCK cells, three days post-virus exposure, ATPlite. It is filed as cell-based. (ATP-based viability assays read luminescence as a measure of living cells.)
Data set [2] is described as follows: in vitro. The following applies: dog, TOX MDCK CC50.

The IC50 is the midpoint of a concentration-inhibition curve. Broadly, the melting point is the temperature, or range, at which the solid turns liquid. As usually defined, the CC50 is the concentration at which the toxic effect on the cells reaches its halfway point. `Cc1cc(F)c2[nH]cc(-c3nc(N[C@H]4CCC[C@@H](NC(=O)c5cn(C)cn5)C4)c(F)cc3C#N)c2c1` (racemic) [Compound 195] showed a melting point greater than 250 °C. In data set [1], this compound displayed an IC50 of 20 nM. Half-maximal cytotoxicity in data set [2] (CC50 at 3 days) was put at 6600 nM.
The matching figures for `Cc1cc(F)c2[nH]cc(-c3ncc(F)c(N[C@@H]4CCC[C@@H](NC(=O)c5cn(C)cn5)C4)n3)c2c1` (racemic) [Compound 196]: greater than 250 °C, 21 nM and 10300 nM.
For `Cc1cc(F)c2[nH]cc(-c3ncc(F)c(N[C@@H]4CCC[C@@H](NC(=O)c5cncn5C)C4)n3)c2c1` (racemic) [Compound 198], in that order: 98 °C, 40 nM and 9700 nM.
The matching figures for `Cc1cc(F)c2[nH]cc(-c3ncc(F)c(N[C@@H]4CCC[C@@H](NC(=O)c5nc(C)oc5C)C4)n3)c2c1` (racemic) [Compound 199]: 170 °C, 46 nM and 13000 nM.
For the compound `Cc1cc(F)c2[nH]cc(-c3nc(N[C@@H]4CCC[C@@H](NC(=O)c5nc(C)oc5C)C4)c(F)cc3C#N)c2c1` (racemic) [Compound 200], the melting point is greater than 250 °C. The IC50 in data set [1] is 160 nM. Also, the CC50 at 3 days in data set [2] was greater than 25000 nM.
The matching figures for `Cc1cc(F)c2[nH]cc(-c3nc(N[C@@H]4CCC[C@@H](NC(=O)c5cncs5)C4)c(F)cc3C#N)c2c1` (racemic) [Compound 201]: greater than 250 °C, 10 nM and greater than 21800 nM.
The matching figures for `Cn1ccc(C(=O)N[C@@H]2CCC[C@@H](Nc3nc(-c4c[nH]c5c(F)cc(F)cc45)c(C#N)cc3F)C2)n1` (racemic) [Compound 205]: 103 °C, 4 nM and greater than 25000 nM.
For `N#Cc1cc(F)c(N[C@H]2CCC[C@@H](NC(=O)c3ncccc3F)C2)nc1-c1c[nH]c2c(F)cc(F)cc12` (racemic) [Compound 212], in that order: 289 °C, 10 nM and greater than 25000 nM.
`CS(=O)(=O)NCc1cc(F)c(N[C@@H]2CCC[C@H](NC(=O)N3CCCC3)C2)nc1-c1c[nH]c2c(F)cc(F)cc12` (racemic) [Compound 250, N-((cis)-3-((6-(5,7-difluoro-1H-indol-3-yl)-3-fluoro-5-(methylsulfonamidomethyl)pyridin-2-yl)amino)cyclohexyl)pyrrolidine-1-carboxamide] came in with a melting point of 252.1 °C. The compound also came in with an IC50 in data set [1] of 780 nM. Moreover, the CC50 at 3 days in data set [2] was greater than 25000 nM.
The matching figures for `CC(=O)NCc1ccc(N[C@H]2CCC[C@@H](NC(=O)N3CCCC3)C2)nc1-c1c[nH]c2c(F)cc(F)cc12` (racemic) [Compound 260, N-((cis)-3-((5-(acetamidomethyl)-6-(5,7-difluoro-1H-indol-3-yl)pyridin-2-yl)amino)-cyclohexyl)pyrrolidine-1-carboxamide]: 235.8 °C, 610 nM and greater than 25000 nM.
For the compound `Cn1cnc(C(=O)N[C@@H]2CCC[C@H](Nc3nc(-c4c[nH]c5c(F)cc(C(F)(F)F)cc45)ncc3F)C2)c1` (racemic) [Compound 264], the melting point is 266.5 °C. The compound further yielded an IC50 in data set [1] of 19 nM. In data set [2], it took 3800 nM to reach half-maximal cytotoxicity (CC50 at 3 days).
For `Cc1cnc(C(=O)N[C@@H]2CCC[C@H](Nc3nc(-c4c[nH]c5c(F)cc(Cl)cc45)ncc3F)C2)cn1` (relative stereo) [Compound 11, N-((1R*,3S*)-3-((2-(5-chloro-7-fluoro-1H-indol-3-yl)-5-fluoropyrimidin-4-yl)amino)cyclohexyl)-5-methylpyrazine-2-carboxamide], in that order: 251.5 °C, 40 nM and 9000 nM.
The matching figures for `O=C(O)c1ccccc1C(=O)N[C@@H]1CCC[C@H](Nc2nc(-c3c[nH]c4c(F)cc(F)cc34)ncc2F)C1` (relative stereo) [Compound 224, 2-(((1R*,3S*)-3-((2-(5,7-difluoro-1H-indol-3-yl)-5-fluoropyrimidin-4-yl)amino)cyclohexyl)carbamoyl)benzoic Acid]: 201.5 °C, 160 nM and greater than 5000 nM.
The matching figures for `CC[C@@]1(C(=O)O)CCCC[C@H]1Nc1nc(-c2c[nH]c3c(F)cc(F)cc23)c(C#N)cc1F` (relative stereo) [Compound 247, (trans)-2-((5-cyano-6-(5,7-difluoro-1H-indol-3-yl)-3-fluoropyridin-2-yl)-amino)-1-ethylcyclohexanecarboxylic Acid]: 254.9 °C, 50 nM and 400 nM.
Regarding `COc1cccc(C(=O)N[C@@H]2CCC[C@H](Nc3nc(-c4c[nH]c5c(F)cc(Cl)cc45)ncc3F)C2)n1` [Compound 31], the melting point was 256.7 °C. The IC50 in data set [1] worked out at 47 nM. Moreover, the midpoint of cytotoxicity in data set [2], the CC50 at 3 days, lay at 19900 nM.
The matching figures for `Cc1cccnc1C(=O)N[C@@H]1CCC[C@H](Nc2nc(-c3c[nH]c4c(F)cc(Cl)cc34)ncc2F)C1` [Compound 32]: 226.5 °C, 9 nM and greater than 22000 nM.
For the compound `O=C(N[C@@H]1CCC[C@H](Nc2nc(-c3c[nH]c4c(F)cc(Cl)cc34)ncc2F)C1)c1cnccn1` [Compound 33], the melting point was found to be 249.9 °C. This compound also had an IC50 in data set [1] of 7 nM. In data set [2], this compound returned a CC50 at 3 days of 13800 nM.
For `O=C(N[C@@H]1CCC[C@H](Nc2nc(-c3c[nH]c4c(F)cc(Cl)cc34)ncc2F)C1)c1ncccc1O` [Compound 34], in that order: 242.2 °C, 8 nM and 8700 nM.
The matching figures for `O=C(N[C@@H]1CCC[C@H](Nc2nc(-c3c[nH]c4c(F)cc(Cl)cc34)ncc2F)C1)c1cccc(O)n1` [Compound 35]: 253.4 °C, 3 nM and greater than 19400 nM.
For `Cc1cc(C(=O)N[C@@H]2CCC[C@H](Nc3nc(-c4c[nH]c5c(F)cc(Cl)cc45)ncc3F)C2)nn1C` [Compound 36], in that order: 178.2 °C, 10 nM and 5500 nM.
Turning to `O=C(N[C@@H]1CCC[C@H](Nc2nc(-c3c[nH]c4c(F)cc(Cl)cc34)ncc2F)C1)c1ccsc1` [Compound 37], the melting point is greater than 300 °C. For the same compound, half-maximal inhibition in data set [1] (IC50) required 1 nM. The compound further yielded a CC50 at 3 days in data set [2] of 2400 nM.
Take `Nc1cccc(C(=O)N[C@@H]2CCC[C@H](Nc3nc(-c4c[nH]c5c(F)cc(Cl)cc45)ncc3F)C2)n1` [Compound 38]: the melting point was found to be 268.4 °C. In data set [1], this compound displayed an IC50 of 3 nM. The compound also came in with a CC50 at 3 days in data set [2] of 2700 nM.
For `Cc1cc(C(=O)N[C@@H]2CCC[C@H](Nc3nc(-c4c[nH]c5c(F)cc(Cl)cc45)ncc3F)C2)n(C)n1` [Compound 41], in that order: 281.2 °C, 10 nM and 6000 nM.
For `O=C(N[C@@H]1CCC[C@H](Nc2nc(-c3c[nH]c4c(F)cc(Cl)cc34)ncc2F)C1)c1cnn[nH]1` [Compound 42], in that order: 280.1 °C, 0.5 nM and 3100 nM.
For `Cc1cc(C(=O)N[C@@H]2CCC[C@H](Nc3nc(-c4c[nH]c5c(F)cc(Cl)cc45)ncc3F)C2)n[nH]1` [Compound 43], in that order: 189.2 °C, 4 nM and 2700 nM.
In turn, `Cc1ncn(C)c1C(=O)N[C@@H]1CCC[C@H](Nc2nc(-c3c[nH]c4c(F)cc(Cl)cc34)ncc2F)C1` [Compound 45] gave a melting point greater than 300 °C. Also, the IC50 in data set [1] came out at 33 nM. This compound registered a CC50 at 3 days in data set [2] greater than 25000 nM.
The matching figures for `O=C(N[C@@H]1CCC[C@H](Nc2nc(-c3c[nH]c4c(F)cc(Cl)cc34)ncc2F)C1)c1ncccn1` [Compound 46]: 286.8 °C, 5 nM and 4800 nM.
For `Cc1scnc1C(=O)N[C@@H]1CCC[C@H](Nc2nc(-c3c[nH]c4c(F)cc(Cl)cc34)ncc2F)C1` [Compound 47], in that order: greater than 300 °C, 3 nM and 7400 nM.
The matching figures for `Cc1ocnc1C(=O)N[C@@H]1CCC[C@H](Nc2nc(-c3c[nH]c4c(F)cc(Cl)cc34)ncc2F)C1` [Compound 48]: 253.4 °C, 4 nM and 5000 nM.
Turning to `Cn1nncc1C(=O)N[C@@H]1CCC[C@H](Nc2nc(-c3c[nH]c4c(F)cc(Cl)cc34)ncc2F)C1` [Compound 49], the melting point was determined as 249.6 °C. In data set [1], this compound registered an IC50 of 9 nM. The compound also registered a CC50 at 3 days in data set [2] greater than 25000 nM.
The matching figures for `Cc1nc(C(=O)N[C@@H]2CCC[C@H](Nc3nc(-c4c[nH]c5c(F)cc(Cl)cc45)ncc3F)C2)no1` [Compound 50]: 276.7 °C, 24 nM and greater than 25000 nM.
For `O=C(N[C@@H]1CCC[C@H](Nc2nc(-c3c[nH]c4c(F)cc(Cl)cc34)ncc2F)C1)c1cc[nH]n1` [Compound 51], in that order: 263.3 °C, 1 nM and 2800 nM.
The matching figures for `Cn1cc(C(=O)N[C@@H]2CCC[C@H](Nc3nc(-c4c[nH]c5c(F)cc(Cl)cc45)ncc3F)C2)cn1` [Compound 52]: 286.8 °C, 2 nM and 4400 nM.
`O=C(N[C@@H]1CCC[C@H](Nc2nc(-c3c[nH]c4c(F)cc(Cl)cc34)ncc2F)C1)c1cncnc1` [Compound 53] showed a melting point greater than 300 °C. In addition, the IC50 in data set [1] was 20 nM. In data set [2], this compound had a cytotoxic concentration (CC50) at 3 days greater than 25000 nM.
